Experimental data reported in patent US20090305993A1, “METHODS AND COMPOSITION FOR THE TREATMENT OF GASTROINTESTINAL DISORDERS” (IRONWOOD PHARMACEUTICALS, INC., priority 2006, published 2009).
Where a SMILES comes first, the peptide text is derived from it. Bridges are numbered along the chain shown (N, C = ends).

Columns and labels:
[1] = oral bioavailability in mice, radioimmunoassay (RIA); conditions: female, CD-1, mouse, in vivo
Procedure: Oral bioavailability was also determined using a radioimmunoassay (RIA) detection method. Female CD-1 mice (Charles River, Wilmington, Mass.) weighing approximately 25 g (7-8 weeks old) or female CD rats (Charles River, Wilmington, Mass.) weighing approximately 153 g were included in this study. Monoclonal antibody, 20C1 (Brandwein et al. 1985 Infect Immun. 47:242-246), which recognizes SEQ ID NO:7 and 1251 labeled—SEQ ID NO:7, a labeled tracer, were used in these experiments. The labeled tracer was purified by HPLC using a Waters C-18u Bondapak® column (25 cm) previously equilibrated with 10 mM ammonium acetate pH 5.8. […] Blood was drawn from all dosed animals by retro-orbital eye bleeding at specific intervals and test compound levels were analyzed by radioimmunoassay (RIA). […] Radioactivity was measured in a LS 6500 scintillation counter (Beckman-Coulter). The binding efficiency is defined as the percent radioactivity in the B0 sample compared to the input counts. The percent bound in each sample was calculated by the equation: […]
A standard curve was prepared by plotting % B/B0 as a function of the log SEQ ID NO:3 concentration. […] The area under the curve from T=0 to 4 hours (AUC0-4h) was calculated by the software for both p.o. and i.v. dosed animals. […] Oral Bioavailability (F) is calculated using the equation: […]

[2] = oral bioavailability in rats, LCMS; format: in vivo, rat; conditions: SEQ ID NO:3 10 mg/kg
Procedure: Similarly, oral bioavailability was determined in rats using LCMS methodology. Rat plasma samples containing SEQ ID NO:3 and/or SEQ ID NO:6 were extracted using a Waters Oasis MAX 96 well solid phase extraction (SPE) plate. A 200 μL volume of rat plasma was mixed with 200 μL of ^13C9, ^15N—SEQ ID NO:3 in the well of a prepared SPE plate. The samples were drawn through the stationary phase with 15 mm Hg vacuum. All samples were rinsed with 200 μL of 2% ammonium hydroxide in water followed by 200 μL of 20% methanol in water. The samples were eluted with consecutive 100 μL volumes of […] formic acid/water/methanol and 100 μL 5/15/80 formic acid/water/methanol. The samples were dried under nitrogen and resuspended in 100 μL of 20% methanol in water. Samples were analyzed by a Waters Quattro Micro mass spectrometer coupled to a Waters 1525 binary pump with a Waters 2777 autosampler. A 40 μL volume of each sample was injected onto a Thermo Hypersil GOLD C18 column (2.1×50 mm, 5 um). SEQ ID NO:3 and SEQ ID NO:6 were eluted by a gradient over 3 minutes with acetonitrile and water containing 0.05% trifluoroacetic acid. The Quattro Micro mass spectrometer was run in multiple reaction monitoring (MRM) mode using the mass transitions of 764>182 and 682>136 for SEQ ID NO:3 and SEQ ID NO:6 respectively. Using this methodology, SEQ ID NO:3 was dosed orally and by IV to rats at 10 mg/kg. […] In this experiment, the limit of detection (LOD) for SEQ ID NO:6 was 0.78 nM. SEQ ID NO:6 was detected at all time points for the intravenous dose and was not detected beyond 240 min for the oral dose. For non-detected values, the LOD was used as an upper estimate of the concentration of SEQ ID NO:6. The calculated value for AUCp.o., (0-6h) was <1308 nM-min and AUCi.v.,(0-6h) was 1,590,000 nM-min. The 6 h bioavailability of SEQ ID NO:6 determined by circulating plasma levels was 0.08%

chymotrypsin = chymotrypsin (Bos taurus, UniProt P00766); conditions: 37° C., up to 24 h
Procedure: The stability of SEQ ID NO:3 in the presence of several mammalian digestive enzymes was determined. SEQ ID NO:3 was exposed to a variety of in vitro conditions including digestive enzymes and low ph environments designed to simulate gastric fluid. SEQ ID NO:3 was incubated with chymotrypsin, trypsin, pepsin, aminopeptidase, carboxypeptidase A, and simulated gastric fluid (sgf) at ph 1.0. Samples were collected at 0, 3, and 24 h for all conditions except pepsin digestion and the SGF. For the latter two conditions, samples were obtained at 0, 1, and 3 h. Negative control samples were prepared for initial and final time points. A separate, positive activity control was run in parallel to SEQ ID NO:3. All samples were analyzed by LC/MS
500 μl samples of 0.01 mg/mL SEQ ID NO:3 and guanylin (Sigma-Aldrich, G116; positive control) were prepared in the chymotrypsin reaction buffer (100 mM Tris-HCl, 10 mM CaCl2, pH 7.5) in 2 mL eppendorf tubes. Zero and 24 h control samples were prepared by adding 5 μL of a 10 mM chymostatin (Sigma-Alrich, C7268; a chymotrypsin inhibitor) stock for a final concentration of 100 μM. All samples were incubated at 37° C. for 5 min. […] These standards were used to generate a standard curve for quantification of samples. […]

## C[C@@H]1NC(=O)[C@@H]2CCCN2C(=O)[C@H](CC(N)=O)NC(=O)[C@@H]2CSSC[C@H](N)C(=O)N[C@H]3CSSC[C@H](NC1=O)C(=O)N[C@@H]([C@@H](C)O)C(=O)NCC(=O)N[C@H](C(=O)N[C@@H](Cc1ccc(O)cc1)C(=O)O)CSSC[C@H](NC(=O)[C@H](Cc1ccc(O)cc1)NC(=O)[C@H](CCC(=O)O)NC3=O)C(=O)N2 [SEQ ID NO:3] (H-CCEYCCNPACTGCY-OH; disulfide 1-6, 2-10, 5-13; N-terminus and C-terminus assumed)
[1]; 8 mg/kg oral, read-out: AUCp.o.,(0-4h)
  AUC: ≤ 11.5 ng·h/mL
[1]; oral, 8 mg/kg, over 4 hours, read-out: bioavailability (F)
  bioavailability: ≤ 0.04%
[2]
  6 h bioavailability when AUC values for SEQ ID NO:6 are included: 0.13%
chymotrypsin
  Cleavage of SEQ ID NO: 3 by proteolytic substance: not detectable
